Laboratory results reported in PubChem BioAssay (NCI).
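Interpolation was linear, between the two tested concentrations surrounding the appropriate level; five concentrations were tested over 48 hours in 96-well plates. GI50 is the concentration that inhibits growth by half. TGI: concentration producing complete growth inhibition.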

Assays:
Experiment in all cases: DTP human tumour cell line panel, 48 h
[1] = test system: TK-10 renal
[2] = test system: OVCAR-3 ovarian
[3] = test system: A549 NSCLC
[4] = test system: K-562 leukemia
[5] = test system: IGROV1 ovarian
[6] = test system: M14 melanoma
[7] = test system: COLO 205 colon
[8] = test system: HS 578T breast
[9] = test system: OVCAR-5 ovarian
[10] = test system: OVCAR-8 ovarian
[11] = test system: CAKI-1 renal
[12] = test system: SF-539 CNS
[13] = test system: HOP-62 NSCLC
[14] = test system: BT-549 breast
[15] = test system: NCI/ADR-RES ovarian
[16] = test system: 786-0 renal
[17] = test system: NCI-H460 lung
[18] = test system: HCC-2998 colon
[19] = test system: NCI-H226 lung
[20] = test system: NCI-H522 lung
[21] = test system: CCRF-CEM leukemia
[22] = test system: RPMI-8226 leukemia
[23] = test system: SK-MEL-28 melanoma
[24] = test system: SW-620 colon
[25] = test system: UACC-62 melanoma
[26] = test system: UO-31 renal
[27] = test system: SR leukemia
[28] = test system: U251 CNS
[29] = test system: MDA-MB-435
[30] = test system: SF-268 CNS
[31] = test system: HCT-116 colon
[32] = test system: PC-3 prostate
[33] = test system: LOX IMVI melanoma
[34] = test system: HCT-15 colon
[35] = test system: OVCAR-4 ovarian
[36] = test system: KM12 colon
[37] = test system: MDA-MB-231 breast
[38] = test system: HT29 colon
[39] = test system: HL-60(TB) leukemia
[40] = test system: MOLT-4 leukemia
[41] = test system: UACC-257 melanoma
[42] = test system: SK-MEL-5 melanoma
[43] = test system: SK-OV-3 ovarian
[44] = test system: SNB-75 CNS
[45] = test system: SK-MEL-2 melanoma
[46] = test system: SN12C renal
[47] = test system: DU-145 prostate
[48] = test system: ACHN renal
[49] = test system: NCI-H23 lung
[50] = test system: MCF7 breast
[51] = test system: RXF 393 renal
[52] = test system: HOP-92 NSCLC
[53] = test system: A498 renal
[54] = test system: T-47D breast
[55] = test system: SNB-19 CNS
[56] = test system: MALME-3M melanoma
[57] = test system: EKVX NSCLC
[58] = test system: SF-295 CNS

SMILES: COc1ccc(N2CCN(c3nc(-c4ccccn4)nc4sc5c(c34)CCCCCC5)CC2)cc1
- GI50 [1]: > 100 µM
- TGI [1]: > 100 µM
- GI50 [2]: 8.61 µM
- TGI [2]: > 100 µM
- GI50 [3]: 3.25 µM
- TGI [3]: > 100 µM
- GI50 [4]: 4.15 µM
- TGI [4]: > 100 µM
- GI50 [5]: 5.34 µM
- TGI [5]: > 100 µM
- GI50 [6]: 5.4 µM
- TGI [6]: > 100 µM
- GI50 [7]: 5.61 µM
- TGI [7]: > 100 µM
- GI50 [8]: 57.6 µM
- TGI [8]: > 100 µM
- GI50 [9]: 51.7 µM
- TGI [9]: > 100 µM
- GI50 [10]: 5.23 µM
- TGI [10]: > 100 µM
- GI50 [11]: 5.4 µM
- TGI [11]: > 100 µM
- GI50 [12]: 66.9 µM
- TGI [12]: > 100 µM
- GI50 [13]: 11.4 µM
- TGI [13]: > 100 µM
- GI50 [14]: 6.92 µM
- TGI [14]: > 100 µM
- GI50 [15]: 4.77 µM
- TGI [15]: > 100 µM
- GI50 [16]: 8.45 µM
- TGI [16]: > 100 µM
- GI50 [17]: 4.67 µM
- TGI [17]: > 100 µM
- GI50 [18]: 10.3 µM
- TGI [18]: > 100 µM
- GI50 [19]: 6.49 µM
- TGI [19]: > 100 µM
- GI50 [20]: 18.6 µM
- TGI [20]: > 100 µM
- GI50 [21]: 4.32 µM
- TGI [21]: > 100 µM
- GI50 [22]: 3.74 µM
- TGI [22]: > 100 µM
- GI50 [23]: > 100 µM
- TGI [23]: > 100 µM
- GI50 [24]: 5.08 µM
- TGI [24]: > 100 µM
- GI50 [25]: 6.86 µM
- TGI [25]: > 100 µM
- GI50 [26]: 3.28 µM
- TGI [26]: > 100 µM
- GI50 [27]: 3.18 µM
- TGI [27]: > 100 µM
- GI50 [28]: 4.26 µM
- TGI [28]: > 100 µM
- GI50 [29]: 5.49 µM
- TGI [29]: > 100 µM
- GI50 [30]: > 100 µM
- TGI [30]: > 100 µM
- GI50 [31]: 3.22 µM
- TGI [31]: > 100 µM
- GI50 [32]: 3.31 µM
- TGI [32]: > 100 µM
- GI50 [33]: 6.24 µM
- TGI [33]: > 100 µM
- GI50 [34]: 4.26 µM
- TGI [34]: > 100 µM
- GI50 [35]: 8.58 µM
- TGI [35]: > 100 µM
- GI50 [36]: 5.15 µM
- TGI [36]: > 100 µM
- GI50 [37]: 49.6 µM
- TGI [37]: > 100 µM
- GI50 [38]: 5.06 µM
- TGI [38]: > 100 µM
- GI50 [39]: 4.05 µM
- TGI [39]: 34 µM
- GI50 [40]: 3.26 µM
- TGI [40]: > 100 µM
- GI50 [41]: 7.22 µM
- TGI [41]: > 100 µM
- GI50 [42]: 2.85 µM
- TGI [42]: > 100 µM
- GI50 [43]: > 100 µM
- TGI [43]: > 100 µM
- GI50 [44]: 26.1 µM
- TGI [44]: > 100 µM
- GI50 [45]: 18.3 µM
- TGI [45]: > 100 µM
- GI50 [46]: 5.99 µM
- TGI [46]: > 100 µM
- GI50 [47]: 27.9 µM
- TGI [47]: > 100 µM
- GI50 [48]: 5.09 µM
- TGI [48]: > 100 µM
- GI50 [49]: 16.9 µM
- TGI [49]: > 100 µM
- GI50 [50]: 3.15 µM
- TGI [50]: > 100 µM
- GI50 [51]: > 100 µM
- TGI [51]: > 100 µM
- GI50 [52]: 3.24 µM
- TGI [52]: > 100 µM
- GI50 [53]: 3.3 µM
- TGI [53]: > 100 µM
- GI50 [54]: 6.31 µM
- TGI [54]: > 100 µM

SMILES: COc1cc(/C=C/[N+](=O)[O-])cc(OC)c1
- GI50 [2]: 1.56 µM
- TGI [2]: 3.07 µM
- GI50 [3]: 3.94 µM
- TGI [3]: 16.8 µM
- GI50 [4]: 1.75 µM
- TGI [4]: 9.09 µM
- GI50 [5]: 2.83 µM
- TGI [5]: 8.63 µM
- GI50 [6]: 2 µM
- TGI [6]: 4.48 µM
- GI50 [7]: 1.79 µM
- TGI [7]: 3.63 µM
- GI50 [8]: 4.11 µM
- TGI [8]: 23.3 µM
- GI50 [9]: 3.66 µM
- TGI [9]: 13.4 µM
- GI50 [10]: 3.72 µM
- TGI [10]: 13.9 µM
- GI50 [55]: 8.49 µM
- TGI [55]: 22.1 µM
- GI50 [12]: 2.49 µM
- TGI [12]: 5.56 µM
- GI50 [13]: 2.93 µM
- TGI [13]: 10.4 µM
- GI50 [14]: 1.85 µM
- TGI [14]: 3.65 µM
- GI50 [15]: 3.02 µM
- TGI [15]: 13.6 µM
- GI50 [16]: 1.74 µM
- TGI [16]: 3.31 µM
- GI50 [17]: 3.51 µM
- TGI [17]: 10.5 µM
- GI50 [18]: 1.98 µM
- TGI [18]: 3.59 µM
- GI50 [19]: 17.3 µM
- TGI [19]: 46.1 µM
- GI50 [20]: 1.39 µM
- TGI [20]: 3.14 µM
- GI50 [21]: 2.02 µM
- TGI [21]: 6.32 µM
- GI50 [22]: 1.85 µM
- TGI [22]: 4.61 µM
- GI50 [23]: 2.75 µM
- TGI [23]: 7.29 µM
- GI50 [24]: 1.68 µM
- TGI [24]: 3.65 µM
- GI50 [25]: 2.42 µM
- TGI [25]: 7.34 µM
- GI50 [26]: 1.78 µM
- TGI [26]: 3.4 µM
- GI50 [27]: 1.14 µM
- TGI [27]: 5.45 µM
- GI50 [28]: 2.22 µM
- TGI [28]: 5.48 µM
- GI50 [29]: 2.99 µM
- TGI [29]: 10.3 µM
- GI50 [30]: 3.62 µM
- TGI [30]: 14.9 µM
- GI50 [31]: 1.84 µM
- TGI [31]: 3.64 µM
- GI50 [32]: 2.94 µM
- TGI [32]: 8.38 µM
- GI50 [33]: 1.42 µM
- TGI [33]: 2.75 µM
- GI50 [34]: 1.99 µM
- TGI [34]: 6.11 µM
- GI50 [56]: 3.29 µM
- TGI [56]: 10.4 µM
- GI50 [35]: 4.87 µM
- TGI [35]: 17.3 µM
- GI50 [36]: 3.08 µM
- TGI [36]: 10.5 µM
- GI50 [37]: 2.72 µM
- TGI [37]: 8.48 µM
- GI50 [38]: 3.08 µM
- TGI [38]: 10.4 µM
- GI50 [57]: 4.05 µM
- TGI [57]: 27.1 µM
- GI50 [39]: 2.22 µM
- TGI [39]: 5.68 µM
- GI50 [40]: 2.25 µM
- TGI [40]: 6.33 µM
- GI50 [41]: 2.48 µM
- TGI [41]: 7.57 µM
- GI50 [42]: 1.97 µM
- TGI [42]: 4.03 µM
- GI50 [43]: 11.1 µM
- TGI [43]: 23.1 µM
- GI50 [44]: 3.82 µM
- TGI [44]: 16.7 µM
- GI50 [45]: 2.1 µM
- TGI [45]: 4.76 µM
- GI50 [58]: 2.54 µM
- TGI [58]: 7.29 µM
- GI50 [46]: 3.38 µM
- TGI [46]: 15.9 µM
- GI50 [47]: 1.97 µM
- TGI [47]: 4.03 µM
- GI50 [48]: 1.76 µM
- TGI [48]: 3.72 µM
- GI50 [49]: 1.85 µM
- TGI [49]: 4.37 µM
- GI50 [50]: 1.39 µM
- TGI [50]: 3.61 µM
- GI50 [51]: 1.75 µM
- TGI [51]: 3.27 µM
- GI50 [52]: 4.78 µM
- TGI [52]: 20.5 µM
- GI50 [53]: 2.96 µM
- TGI [53]: 9.12 µM
- GI50 [54]: 2.17 µM
- TGI [54]: 7.03 µM
